{"source": "patent EP4653523A1", "about": "“CULTURE MEDIUM, PRODUCTION METHOD, AND CELL PREPARATION” (National University Corporation Kumamoto University, priority 2023, dated 2024)", "key": {"[1]": {"system": "EPCR High cell group", "assay": "Ex vivo culture of mouse EPCR High cell group for 4 days, flow cytometry and cell count", "type": "cell-based", "conditions": "cultured for 4 days, vs control", "from_the_text": "The expression of c-kit and EPCR in a hematopoietic stem cell fraction (lineage: CD150+, CD48-) isolated from a mouse by using flow cytometry was checked. Among the c-kit-positive and EPCR-positive cells, a cell group of the top 30% of the EPCR-positive cells was defined as an EPCR High cell group, and a cell group of the bottom 30% of the EPCR-positive cells was defined as an EPCR Low cell group (see FIG. 1). Each cell group was transplanted into a recipient mouse, and 20 weeks later, the proportion of cells derived from the transplanted stem cells was examined in the peripheral blood (PB). In addition, at the same time, the proportion of cells derived from the transplanted stem cells was examined in the hematopoietic stem cell fraction ([…]) in the bone marrow after 20 weeks of the transplantation. The experiment was carried out twice. […] The culture medium used for the ex vivo culture of the untreated hematopoietic stem cells isolated from the mouse is a culture medium obtained by adding, to the RPMI medium, L-Alanin (4.45mg/L), Zinc Sulfate Heptahydrate (0.432mg/L), Cupric Sulfate Pentahydrate (0.0013mg/L), Ferric Nitrate Nonahydrate (0.05mg/L), Ferrous Sulfate Heptahydrate (0.417mg/L), Linoleic acid (0.042mg/L), Hypoxanthine (2.1mg/L), Putrescine + 2HCL (0.081mg/L), Thioctic Acid (0.105mg/L), Thymidine (0.365mg/L), Sodium Pyruvate (55mg/L), HEPES (1mM), a penicillin-streptomycin mixed solution (Nacalai Tesque, Inc.: 26253-84) (1/100 capacity), Insulin-Transferrin-Selenium-Ethanolamine (Thermo Fisher Scientific, Inc.: 51500056) (1/100 capacity), and AlbuMAXtm I Lipid-Rich BSA (Thermo Fisher Scientific, Inc.: 11020021) (2%). As shown in FIG. 5(A), α-ketoglutaric acid (αKG), which is an intermediate metabolite of the TCA cycle, is also produced from glutamic acid or the like, and then it is supplied to the TCA cycle. In addition, in the production of α-ketoglutaric acid from glutamic acid, two pathways of a transaminase pathway and a glutamate dehydrogenase pathway are used (see FIG. 5(B)). Therefore, the proportion of EPCR High in hematopoietic stem cells was determined in a case where the EPCR High cell group was cultured for 4 days by adding each of an inhibitor […] (30 μM) of glutamate dehydrogenase and an inhibitor aminooxyacetic acid (AOA) (50 μM) of transaminase to the culture medium, and in a case where the content of […] in the culture medium, which is the source of glutamic acid synthesis, was set to 1/100 (0.02 mM) in FIG. 5(A) (Low Neu.). […] As a result, in a case of culturing in the presence of […], the number of cells having the EPCR High phenotype is increased by about 2 times in the culture for 4 days, as compared with the culture under the normal culture conditions. […]"}, "[2]": {"system": "EPCR High cell group", "assay": "Chromatin status by open chromatin region analysis (ATAC-sequence) with principal component analysis", "type": "cell-based, mouse", "conditions": "4d gEPCR-High (R162) compared with 4d gEPCR-High, cultured for 4 days", "description": "In the same manner, the chromatin status of each cell group was analyzed by open chromatin region analysis (ATAC-sequence)."}, "[3]": {"system": "Human CD34^+ bone marrow cells", "assay": "Culture of human CD34+ bone marrow cells for 7 days, total cell count and flow cytometry", "type": "cell-based", "description": "Human CD34^+ bone marrow cells (10,000 cells) were cultured for 7 days under normal culture conditions or in the presence of a glutamate dehydrogenase inhibitor R162 (30 µM), and then the total number of cells was analyzed. Then, the proportion of hematopoietic stem cells (lineage: CD34+ CD38- CD90+ cells) was analyzed using a flow cytometer, and from the results, the number of stem cells was estimated. FIG. 13 and FIG. 14 show the results. As shown in FIG. 14(A), it has been confirmed that the total number of cells is not changed by the presence of R162 as compared with the control, whereas as shown in FIG. 14(B), the ratio of stem cells after culturing is increased by the presence of R162.\nThe culture medium used for the ex vivo culture of human CD34+ bone marrow cells is a culture medium obtained by adding, to the RPMI medium, L-Alanin (4.45mg/L), Zinc Sulfate Heptahydrate (0.432mg/L), Cupric Sulfate Pentahydrate (0.0013mg/L), Ferric Nitrate Nonahydrate (0.05mg/L), Ferrous Sulfate Heptahydrate (0.417mg/L), Linoleic acid (0.042mg/L), Hypoxanthine (2.1mg/L), Putrescine + 2HCL (0.081mg/L), Thioctic Acid (0.105mg/L), Thymidine (0.365mg/L), Sodium Pyruvate (55mg/L), HEPES (1mM), a penicillin-streptomycin mixed solution (Nacalai Tesque, Inc.: 26253-84) (1/100 capacity), Insulin-Transferrin-Selenium-Ethanolamine (Thermo Fisher Scientific, Inc.: 51500056) (1/100 capacity), and AlbuMAXtm I Lipid-Rich BSA (Thermo Fisher Scientific, Inc.: 11020021) (2%)."}, "[4]": {"system": "EPCR High cell group", "assay": "Gene expression pattern analysis by RNA-sequence with principal component analysis", "type": "cell-based, mouse", "conditions": "4d gEPCR-High (R162) compared with 4d gEPCR-High, cultured for 4 days"}, "[5]": {"system": "recipient mouse", "assay": "Transplantation of cultured cell groups into recipient mouse, proportion of donor-derived cells", "type": "in vivo", "description": "Mouse EPCR High cells were cultured for 4 days under the normal culture conditions or in the presence of R162, and 50 cells of each of an EPCR High cell group (Control) generated under the normal culture conditions, an EPCR Low cell group (Control), and an EPCR High cell group (R162) amplified in the presence of R162 were aliquoted and then transplanted into a recipient mouse. Then, after 4 weeks and 12 weeks, the proportion of cells derived from donor cells in the peripheral blood was examined.\nFurther, the EPCR High cells were cultured for 4 days under the normal culture conditions and cultured for 4 days in the presence of R162, and the EPCR High cell group generated under the normal culture conditions, the EPCR Low cell group, and the EPCR High cell group (R162) amplified in the presence of R162 were each transplanted into a recipient mouse. Then, 20 weeks later, the proportion of cells derived from donor cells was examined in the peripheral blood and the hematopoietic stem cell fraction in the bone marrow (L-ESLAM (BM))."}}, "data": [{"smiles": "NOCC(=O)O", "note": "[AOA, aminooxyacetic acid]", "values": [{"measurement": "number of cells", "setting": "[1]; AOA 50 µM", "value": "significantly reduced as compared with the control"}]}, {"smiles": "O=C(O[C@@H]1Cc2c(O)cc(O)cc2O[C@@H]1c1cc(O)c(O)c(O)c1)c1cc(O)c(O)c(O)c1", "note": "[EGCG, epigallo catechin-3-gallate]", "values": [{"measurement": "proportion of EPCR-positive cells (phenotype of EPCR High)", "setting": "[1]; EGCG 50 µM in culture medium", "value": "phenotype of EPCR High is maintained"}]}, {"smiles": "C=CCc1ccc2c(c1O)C(=O)c1ccccc1C2=O", "note": "[R162, 2-allyl-1-hydroxy-9,10-anthraquinone]", "values": [{"measurement": "chromatin status (chromatin accessibility of cis-element regions)", "setting": "[2]", "value": "extremely similar gene expression patterns even in the chromatin status"}, {"measurement": "total number of cells", "setting": "[3]; R162 30 µM, 10,000 cells cultured for 7 days, vs control", "value": "not changed"}, {"measurement": "number of stem cells", "setting": "[3]; R162 30 µM, cultured for 7 days, estimated from total cell number and proportion, vs normal culture conditions", "value": "the number of stem cells is increased"}, {"measurement": "ratio of stem cells after culturing (CD34+ CD38- CD90+ cells)", "setting": "[3]; R162 30 µM, cultured for 7 days, vs control", "value": "increased"}, {"measurement": "gene expression pattern", "setting": "[4]", "value": "extremely similar gene expression patterns"}, {"measurement": "proportion of cells derived from donor cells in the peripheral blood", "setting": "[5]; 50 cells of EPCR High cell group amplified 4 days in the presence of R162, transplanted, after 4 weeks and 12 weeks", "value": "high ability to reconstruct hematopoietic tissue, which is equivalent to the EPCR High cell group (Control)"}, {"measurement": "proportion of cells derived from donor cells in the peripheral blood and the hematopoietic stem cell fraction in the bone marrow (L-ESLAM (BM))", "setting": "[5]; EPCR High cell group amplified 4 days in the presence of R162, transplanted, 20 weeks later", "value": "high ability to maintain the reconstructed hematopoiesis for a longer period of time"}, {"measurement": "proportion of EPCR High in hematopoietic stem cells", "setting": "[1]; R162 30 µM in culture medium", "value": "phenotype of EPCR High is maintained"}, {"measurement": "number of cells", "setting": "[1]; R162 30 µM", "value": "about the same level as that of the control"}]}]}
